The subject of assay [1] is EA.hy.926 cells. The assay is described as follows: EA.hy.926 cell migration, chemotaxis test in Boyden chamber. It is filed as cell-based, human. The settings on record: glioma conditioned medium as chemotactic stimulus, 4 hours, at/starting from 10^−9 M. As to the method:
Endothelial human cells EA.hy.926 were grown in DMEM supplemented with 10% fetal bovine serum (FBS) and with the appropriate concentrations of glutamine and antibiotics. Before the experiments, the cells had been deprived of serum for 24 hours in 0.1% FBS. EA.hy.926 cells migration has been evaluated by chemotaxis test in a 48 well Boyden chamber using polycarbonate filters of 12 μm porosity pre-treated with a 10 μg/ml type I collagen solution. […] The chemotactic stimulus, represented by a conditioned medium obtained by a culture of glioma cells, was added to the lower chamber. After 4 hours of incubation at 37° C., non migrated cells were removed by a scraper and the filter was colored with Diff Quick. Migrated cells were then counted at a 400×magnification in 6 different fields. The results, reported in FIG. 2, are expressed as a percentage of the maximal migration induced by the conditioned medium in the presence of the peptide or of endostatin.

Assay [2] has as its system EA.hy.926 cells. Briefly: DNA synthesis (tritiated thymidine incorporation) in EA.hy.926 cells stimulated with 10% FBS. The assay is classed as cell-based, human. The settings on record: 24 hours, starting from the concentration of 10^−12 M. On the procedure:
Endothelial human cells EA.hy.926 were grown in DMEM supplemented with 10% fetal bovine serum (FBS) and with the appropriate concentrations of glutamine and antibiotics. Before the experiments, the cells had been deprived of serum for 24 hours in 0.1% FBS. EA.hy.926 cells were inoculated in 96 well-plates and, after being deprived of serum for 24 hours, were 'stimulated with 10% FBS in the presence or in the absence of different concentrations of the peptide 6-49 or of endostatin for further 24 hours. Tritiated tymidine (1 μCi/well) was added during the last 6 hours of incubation. The cells were then extracted in 10% TCA and the radioactivity incorporated in the TCA-insoluble fraction was determined after solubilization in 0.5 M NaOH. The results, reported in FIGS. 3a and 3b, are expressed as the percentage of the maximal stimulation induced by 10% serum in the absence of the drug.
(Dividing cells build labelled thymidine or BrdU into new DNA.)

For the next assay, the system named is endothelial cells. The assay is described as follows: Tubules formation by endothelial cells on Matrigel. The assay is classed as cell-based. Conditions: endothelial cells on Matrigel with FGF or VEGF; area quantified by NIH Image. On the procedure: The formation of tubular structures, similar to capillaries, was evaluated by seeding the endothelial cells on a Matrigel carrier, a re-constructed basal membrane, with the characteristic of being liquid at 4° C. and of undergoing polymerization at 37° C. forming a tri-dimensional gel. Proangiogenic factors, such as Fibroblast Growth Factor (FGF) or Vascular Endothelial Growth Factor (VEGF), were added to the medium in the presence of the peptide 9-49 and the plate's were incubated at 37° C. under 5% CO2 atmosphere. Tubules formation was monitored observing the cells with an inverted microscope and, after recording the image by means of photography, a quantification was performed by evaluating the area occupied by the cells and by the capillaries network. Upon observation under the microscope, it is evident that the peptide of invention is able to inhibit the capacity of endothelial cells to form tubular structures similar to capillaries, which on the contrary are clearly evident in the untreated control cells (FIG. 4A). In FIG. 4B, a quantitative analysis of the effect, carried out by a proper software (NIH Image), is reported.

In a further assay the test system is male mice C57/b16. The assay is described as follows: Matrigel pellet s.c. in mice, hemoglobin amount (Drabkin's method). It is filed as in vivo. Conditions: Matrigel with FGF 2 ng/ml and heparin 36 U/ml s.c., 4 days; dose of 1 mg/mouse; compared with controls. As to the method:
[…] of Matrigel containing FGF 2 ng/ml and heparin 36 U/ml were inoculated s.c. in the abdominal region of male mice C57/b16, of age from 6 to 10 weeks. […] Six animals were used in each experiment. After 4 days, the gelatinized Matrigel pellet was recovered and the amount of hemoglobin therein was measured by means of a commercial kit based on Drabkin's method ([…] Aldrich).

Consider one substance from patent publication US20040073007A1, “Antiangiogenic peptides” (priority 2001, published 2004).

Ends that are not written are not given here. * marks the point of attachment. Acm = CC(=O)NC*

“FQPVLHLVALNSPLSGGMRGIRGADFQC(Acm)FQQARAVGLAGTFRAF [Peptide 6-49, tetratetracontapeptide]”: the “maximal inhibition of cell migration” value in the assay on EA.hy.926 cells [1] was “about 60%”. In addition, the “maximal inhibition of DNA synthesis” value in the assay on EA.hy.926 cells [2] is “about 80%”. The “tubules formation compared with controls, considered as 100%” value in the assay on endothelial cells stood at 23%. In addition, the “hemoglobin levels in the Matrigel pellets” value with male mice C57/b16 is “capable of reducing hemoglobin levels”.
